Values quoted from earlier work as cited in US20080089861A1, “Combination therapy for treatment of demyelinating conditions” (priority 2006, published 2008).
“Also recorded” adds a separate entry of the source.

Settings: human

CC12CC3CC(C)(C1)CC(N)(C3)C2 [Memantine, 1-amino-3,5-dimethyladamantane]
Dose Dependent Tox: Dose escalation; also recorded: hallucination
